Results published in ChEMBL document CHEMBL1201862, “PubChem BioAssay data set” (2004).
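1) Cells in 96-well plates. 2) Compound, 48 h, 5 concentrations. 3) Linear interpolation between surrounding doses. 4) Unreached endpoint = highest concentration. GI50 marks 50% less growth.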 The source made the active and inactive calls. No stated cut-off is given here; in the data, active = GI50 up to about 1.1 µM and inactive = higher.

Key:
Test in all cases: growth of human tumour cells (NCI), 48 h
Malme-3M = test system: Malme-3M
NCI-H226 = test system: NCI-H226
LOX IMVI = test system: LOX IMVI
MCF7 = test system: MCF7
RXF 393 = test system: RXF 393
SNB-75 = test system: SNB-75
MDA-MB-231 = test system: MDA-MB-231
SN12C = test system: SN12C
U-251 = test system: U-251
OVCAR-8 = test system: OVCAR-8
MOLT-4 = test system: MOLT-4
SK-MEL-28 = test system: SK-MEL-28
SK-MEL-2 = test system: SK-MEL-2
A549 = test system: A549
HCT-116 = test system: HCT-116
NCI-H522 = test system: NCI-H522
ACHN = test system: ACHN
MDA-N = test system: MDA-N
CCRF-CEM = test system: CCRF-CEM
HCC 2998 = test system: HCC 2998

Measured: GI50

Cc1cc(Cc2c(C)c(C)c(Cc3cc(C)cc(C(C)(C)C)c3O)c(C)c2C)c(O)c(C(C)(C)C)c1
inactive: Malme-3M > 100 µM | NCI-H226 > 100 µM | LOX IMVI > 100 µM | MCF7 > 100 µM | RXF 393 > 100 µM | SNB-75 > 100 µM | MDA-MB-231 > 100 µM | SN12C > 100 µM | U-251 > 100 µM | OVCAR-8 > 100 µM | MOLT-4 1.56 µM | SK-MEL-28 > 100 µM | SK-MEL-2 > 100 µM | A549 > 100 µM | HCT-116 > 100 µM | NCI-H522 > 100 µM | ACHN > 100 µM | MDA-N > 100 µM

CCC(C)NC1=NCC(C)S1 (stereo unspecified)
inactive: Malme-3M > 100 µM | NCI-H226 > 100 µM | LOX IMVI > 100 µM | MCF7 > 100 µM | RXF 393 28.3 µM | CCRF-CEM > 100 µM | SNB-75 > 100 µM | MDA-MB-231 > 100 µM | SN12C > 100 µM | U-251 > 100 µM | MOLT-4 > 100 µM | SK-MEL-28 > 100 µM | SK-MEL-2 > 100 µM | A549 > 100 µM | HCT-116 > 100 µM | NCI-H522 > 100 µM | HCC 2998 > 100 µM | ACHN > 100 µM | MDA-N > 100 µM

CCSc1c2cc(OC)ccc2nc2ccc(OC)cc12
inactive: Malme-3M 13.7 µM | NCI-H226 11.9 µM | LOX IMVI 13.2 µM | MCF7 4.99 µM | RXF 393 11.6 µM | CCRF-CEM 5.56 µM | SNB-75 6.73 µM | MDA-MB-231 8.57 µM | SN12C 14.3 µM | U-251 12.5 µM | OVCAR-8 16.4 µM | MOLT-4 3.22 µM | SK-MEL-28 14.9 µM | SK-MEL-2 18.8 µM | A549 25.6 µM | HCT-116 6.05 µM | NCI-H522 9.33 µM | HCC 2998 7.53 µM | ACHN 18.6 µM | MDA-N 5.24 µM

ClC1=C(Cc2ccccc2)Cc2ccc3c(c21)CCC3
inactive: Malme-3M 24.2 µM | NCI-H226 23 µM | LOX IMVI 17.9 µM | MCF7 18.9 µM | RXF 393 19.7 µM | CCRF-CEM 27.9 µM | SNB-75 > 10 µM | MDA-MB-231 21.8 µM | SN12C 34.4 µM | U-251 19.1 µM | OVCAR-8 36.8 µM | MOLT-4 19.1 µM | SK-MEL-28 66.5 µM | A549 33.6 µM | HCT-116 28.3 µM | NCI-H522 17.7 µM | HCC 2998 20 µM | ACHN 29.9 µM | MDA-N 36.6 µM

CSc1n[n+](C)cc(N)c1N
inactive: Malme-3M 36.1 µM | NCI-H226 > 100 µM | LOX IMVI > 100 µM | MCF7 > 100 µM | CCRF-CEM > 100 µM | SNB-75 > 100 µM | MDA-MB-231 > 100 µM | SN12C > 100 µM | U-251 > 100 µM | OVCAR-8 > 100 µM | MOLT-4 > 100 µM | SK-MEL-28 > 100 µM | SK-MEL-2 > 100 µM | A549 > 100 µM | HCT-116 > 100 µM | NCI-H522 > 100 µM | HCC 2998 > 100 µM | ACHN > 100 µM | MDA-N > 100 µM

C=CCCCC1CCCNC1=S (stereo unspecified)
inactive: NCI-H226 > 100 µM | MCF7 > 100 µM | RXF 393 > 100 µM | SNB-75 > 100 µM | MDA-MB-231 > 100 µM | SN12C > 100 µM | U-251 > 100 µM | OVCAR-8 > 100 µM | MOLT-4 > 100 µM | SK-MEL-28 > 100 µM | SK-MEL-2 > 100 µM | A549 > 100 µM | HCT-116 > 100 µM | NCI-H522 > 100 µM | HCC 2998 > 100 µM | ACHN > 100 µM | MDA-N > 100 µM

O=C(CC(=O)N1N=C(N2CCCCC2)CC1c1ccccc1)Nc1ccc(Cl)cc1 (stereo unspecified)
inactive: Malme-3M > 100 µM | NCI-H226 > 100 µM | LOX IMVI > 100 µM | MCF7 > 100 µM | CCRF-CEM > 100 µM | SNB-75 > 100 µM | MDA-MB-231 > 100 µM | SN12C > 100 µM | U-251 > 100 µM | OVCAR-8 > 100 µM | MOLT-4 > 100 µM | SK-MEL-28 > 100 µM | SK-MEL-2 > 100 µM | A549 > 100 µM | HCT-116 > 100 µM | NCI-H522 > 100 µM | HCC 2998 > 100 µM | ACHN > 100 µM | MDA-N > 100 µM
